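Exposure lasted 48 hours, with cells grown in 96-well plates and compounds tested at five concentrations. GI50 = concentration required for 50% inhibition of growth.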 The source made the active and inactive calls. Rule as the data show it: active = GI50 up to about 1.1 µM and inactive = higher.

Four compounds from ChEMBL document CHEMBL1201862, “PubChem BioAssay data set” (2004) can be followed below.

Some test systems named below: NCI-H460; NCI-H226; SK-OV-3; A549; LOX IMVI; DU-145; SF-539; MCF7; UACC-257; IGROV-1; U-251; CAKI-1; COLO 205; MDA-N; HOP-92; KM12; Hs-578T; NCI/ADR-RES; OVCAR-8; SF-268.
Holding throughout (test): NCI anticancer screen, dose series, 48 h

On to `COC(=O)Cc1c(-c2c(CC(=O)OC)c3ccccc3n2C2OC(COC3OC(COC(C)=O)C(OC(C)=O)C(OC(C)=O)C3OC(C)=O)C(O)C(O)C2O)[nH]c2ccccc12` (stereo not given), for which the GI50 in the test on NCI-H460 is > 100000 nM (inactive); with NCI-H226, 61400 nM (inactive); with SK-OV-3 it was 74800 nM (inactive); in the test on A549 it was > 100000 nM (inactive); in the test on LOX IMVI, > 100000 nM (inactive); in the test with DU-145, > 100000 nM (inactive). Moreover, the GI50 in the test with SF-539 was 51500 nM (inactive); in the test on MCF7, > 100000 nM (inactive); in the test with UACC-257, > 100000 nM (inactive); in the test on IGROV-1, 75300 nM (inactive); in the test with U-251 it was 44300 nM (inactive); in the test on CAKI-1, > 100000 nM (inactive). The values for the GI50 with COLO 205, in the test on MDA-N and in the test on HOP-92 were > 100000 nM (inactive), > 100000 nM (inactive) and 27900 nM (inactive), respectively.

In the case of `CCc1cn2c(/C=N/N=C(N)N)c(-c3cc(C)c(Cl)cc3Cl)nc2s1`, the GI50 was 1860 nM (inactive) with NCI-H460; 1260 nM (inactive) in the test on NCI-H226; 1580 nM (inactive) with KM12; 1710 nM (inactive) in the test on Hs-578T; 3950 nM (inactive) in the test on NCI/ADR-RES; 1700 nM (inactive) in the test on SK-OV-3. The GI50 in the test with A549 was 1670 nM (inactive); in the test on OVCAR-8 it was 1580 nM (inactive); in the test with SF-268, 1980 nM (inactive); with LOX IMVI, 1350 nM (inactive); in the test on DU-145 it was 1640 nM (inactive); with SF-539 it was 1740 nM (inactive). In addition, the GI50 in the test on MCF7 is 1710 nM (inactive); in the test with UACC-257 it was 1400 nM (inactive); with IGROV-1 it was 1690 nM (inactive); in the test with U-251, 1530 nM (inactive); in the test with CAKI-1, 1270 nM (inactive); with COLO 205, 1640 nM (inactive). The GI50 in the test on HOP-92 is 1640 nM (inactive).

Consider `CN(C)CCNC(=O)c1cccc2nc3c(C(=O)NCCN(C)C)cccc3nc12`, for which the GI50 with NCI-H460 is 820 nM (active); in the test with NCI-H226, 1460 nM (inactive); with KM12, 1260 nM (inactive); with Hs-578T, 1890 nM (inactive); in the test on NCI/ADR-RES it was 5150 nM (inactive); in the test on A549, 1570 nM (inactive). In addition, the GI50 in the test on OVCAR-8 is 421 nM (active); in the test on SF-268 it was 782 nM (active); in the test with LOX IMVI, 366 nM (active); in the test with DU-145, 1370 nM (inactive); with SF-539, 1920 nM (inactive); in the test with MCF7, 706 nM (active). The GI50 is 2140 nM (inactive) with UACC-257; 1780 nM (inactive) with IGROV-1; 632 nM (active) in the test with U-251; 2140 nM (inactive) in the test with CAKI-1; 612 nM (active) with COLO 205; 2900 nM (inactive) in the test with HOP-92.

As to `CCOC(=O)C1=C(C)N(Cc2ccc(Cl)cc2Cl)C2(O)C(OC)CC(=O)C3C(=O)N(c4ccccc4)C(=O)C132` (stereo not given), the GI50 was 2920 nM (inactive) in the test on NCI-H460; 3330 nM (inactive) with NCI-H226; 2630 nM (inactive) in the test on KM12; 9060 nM (inactive) with Hs-578T; 2010 nM (inactive) in the test on NCI/ADR-RES; 2340 nM (inactive) with A549. Further, the GI50 is 1950 nM (inactive) in the test with OVCAR-8; 2260 nM (inactive) in the test on SF-268; 1050 nM (active) in the test with LOX IMVI; 1060 nM (active) in the test on DU-145; 2860 nM (inactive) in the test with SF-539; 1910 nM (inactive) in the test with MCF7. Moreover, the GI50 in the test on UACC-257 is 3520 nM (inactive); in the test with IGROV-1, 4340 nM (inactive); in the test on U-251 it was 1500 nM (inactive); in the test on CAKI-1 it was 6710 nM (inactive); with COLO 205, 3640 nM (inactive); in the test with HOP-92, 54.1 nM (active).
